What follows are compounds tested against T1, human NaV1.8 (hNaV1.8) ion channel (Homo sapiens, UniProt Q9Y5Y9) (assay: Inhibition of Human NaV1.8 stably expressed in SH-SY-5Y cells (membrane potential dye fluorescence assay)). Details: SH-SY-5Y cells stably expressing hNaV1.8; FLIPR membrane potential dye; 10 μM pyrethroid, 250 nM TTX; test range 100 μM-0.05 μM; read-out: hNav1.8 IC50.
T1 construct: expressed in transfected cells
T1 sequence (Q9Y5Y9 whole entry): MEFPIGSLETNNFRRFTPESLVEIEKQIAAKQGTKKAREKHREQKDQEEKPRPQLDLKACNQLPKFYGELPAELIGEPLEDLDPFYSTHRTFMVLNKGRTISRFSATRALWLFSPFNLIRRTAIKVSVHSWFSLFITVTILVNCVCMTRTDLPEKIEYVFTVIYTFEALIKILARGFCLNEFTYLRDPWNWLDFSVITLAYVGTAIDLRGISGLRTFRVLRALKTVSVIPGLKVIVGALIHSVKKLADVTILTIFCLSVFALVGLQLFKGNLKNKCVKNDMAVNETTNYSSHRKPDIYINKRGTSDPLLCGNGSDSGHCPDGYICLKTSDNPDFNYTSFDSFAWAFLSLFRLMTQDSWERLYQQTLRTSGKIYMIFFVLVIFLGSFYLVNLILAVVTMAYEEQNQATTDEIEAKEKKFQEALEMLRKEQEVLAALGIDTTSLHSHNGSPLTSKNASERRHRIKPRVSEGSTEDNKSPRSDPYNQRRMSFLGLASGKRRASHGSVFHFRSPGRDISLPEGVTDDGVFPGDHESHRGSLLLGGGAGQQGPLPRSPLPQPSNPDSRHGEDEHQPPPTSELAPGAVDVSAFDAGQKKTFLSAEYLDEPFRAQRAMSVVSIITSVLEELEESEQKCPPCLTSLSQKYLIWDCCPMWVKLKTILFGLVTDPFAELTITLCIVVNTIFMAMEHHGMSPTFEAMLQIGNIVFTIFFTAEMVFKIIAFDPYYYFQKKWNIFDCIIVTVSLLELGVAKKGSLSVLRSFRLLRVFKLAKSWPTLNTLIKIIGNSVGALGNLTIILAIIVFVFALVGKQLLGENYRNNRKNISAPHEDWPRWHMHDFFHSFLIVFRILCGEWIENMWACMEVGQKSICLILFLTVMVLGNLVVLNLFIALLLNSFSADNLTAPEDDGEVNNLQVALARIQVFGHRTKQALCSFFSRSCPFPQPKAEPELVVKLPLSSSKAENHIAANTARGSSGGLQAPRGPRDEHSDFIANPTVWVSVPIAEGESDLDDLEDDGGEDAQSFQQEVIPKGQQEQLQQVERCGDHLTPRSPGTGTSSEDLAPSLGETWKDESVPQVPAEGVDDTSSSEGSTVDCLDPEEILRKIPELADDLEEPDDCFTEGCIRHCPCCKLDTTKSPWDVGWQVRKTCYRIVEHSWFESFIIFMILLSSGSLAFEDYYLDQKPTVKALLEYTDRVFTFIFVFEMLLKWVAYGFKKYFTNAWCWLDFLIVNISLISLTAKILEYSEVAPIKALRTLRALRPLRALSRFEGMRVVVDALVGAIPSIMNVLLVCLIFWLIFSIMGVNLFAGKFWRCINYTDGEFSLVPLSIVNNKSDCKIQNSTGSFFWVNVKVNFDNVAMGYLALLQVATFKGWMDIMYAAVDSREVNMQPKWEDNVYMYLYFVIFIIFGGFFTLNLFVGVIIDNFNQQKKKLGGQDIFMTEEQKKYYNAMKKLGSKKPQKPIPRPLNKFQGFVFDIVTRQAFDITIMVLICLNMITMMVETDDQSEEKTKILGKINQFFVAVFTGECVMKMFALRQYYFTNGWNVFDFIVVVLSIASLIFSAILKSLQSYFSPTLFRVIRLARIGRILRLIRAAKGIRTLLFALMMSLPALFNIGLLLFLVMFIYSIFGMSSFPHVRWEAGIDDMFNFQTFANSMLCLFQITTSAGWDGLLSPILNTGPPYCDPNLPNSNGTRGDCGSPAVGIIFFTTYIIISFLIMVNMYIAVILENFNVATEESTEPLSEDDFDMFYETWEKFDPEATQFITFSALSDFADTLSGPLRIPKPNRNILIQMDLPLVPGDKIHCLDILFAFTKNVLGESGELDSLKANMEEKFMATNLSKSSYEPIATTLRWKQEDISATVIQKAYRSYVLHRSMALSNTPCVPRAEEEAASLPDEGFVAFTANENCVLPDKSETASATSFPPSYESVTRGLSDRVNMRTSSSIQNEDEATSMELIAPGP
Assay type: cell-based
Work on CC(c1ccc(F)cc1)N(C)C1CN(C(=O)Nc2ccc(F)c(C(F)(F)F)c2)C1 (stereo not drawn) [Example 83, 3-{[1-(4-Fluoro-phenyl)-ethyl]-methyl-amino}-azetidine-1-carboxylic acid (4-fluoro-3-trifluoromethyl-phenyl)-amide] yielded an IC50 of 3930 nM. Cc1cc(F)ccc1C(C)NC1CN(C(=O)Nc2ccc(C(F)(F)F)cc2)C1 (stereo not drawn) [Example 114, 3-[1-(4-Fluoro-2-methyl-phenyl)-ethylamino]-azetidine-1-carboxylic acid (4-trifluoromethyl-phenyl)-amide] was tested, and the IC50 was 2300 nM. Compound O=C(Cc1ccc(Oc2ccc(F)cc2)cc1)N1CC(NC2CCc3cc(F)ccc32)C1 (stereo not drawn) [Example 48, 1-[3-(5-Fluoro-indan-1-ylamino)-azetidin-1-yl]-2-[4-(4-fluoro-phenoxy)-phenyl]-ethanone] has an IC50 of 690 nM. Compound CC(NC1CN(C(=O)Nc2ccc(C(F)(F)F)cc2)C1)c1ccccc1Cl (stereo not drawn) [Example 124, 3-[1-(2-Chloro-phenyl)-ethylamino]-azetidine-1-carboxylic acid (4-trifluoromethyl-phenyl)-amide] has an IC50 of 2480 nM. For CC(c1ccc(F)cc1Cl)N(C)C1CN(C(=O)Nc2ccc(C(F)(F)F)cc2)C1 (stereo not drawn) [Example 59, 3-{[1-(2-Chloro-4-fluoro-phenyl)-ethyl]-methyl-amino}-azetidine-1-carboxylic acid (4-trifluoromethyl-phenyl)-amide], the IC50 was 1870 nM. CC(NC1CN(C(=O)Nc2ccc(Oc3ccccc3)cc2)C1)c1ccc(F)cc1 (stereo not drawn) [Example 79, 3-[1-(4-Fluoro-phenyl)-ethylamino]-azetidine-1-carboxylic acid (4-phenoxy-phenyl)-amide] showed an IC50 of 760 nM. Work on C=CCOc1ccccc1CNC1CN(C(=O)Nc2ccc(OCc3ccccc3)cc2)C1 [Example 51, 3-(2-Allyloxy-benzylamino)-azetidine-1-carboxylic acid (4-benzyloxy-phenyl)-amide] yielded an IC50 of 340 nM. O=C(Nc1ccc(Oc2ccccc2)cc1)N1CC(NC2COc3ccccc32)C1 (stereo not drawn) [Example 123, 3-(2,3-Dihydro-benzofuran-3-ylamino)-azetidine-1-carboxylic acid (4-phenoxy-phenyl)-amide] showed an IC50 of 1700 nM. With CCCCOc1cccc(NC(=O)N2CC(N(C)C(C)c3ccccc3C)C2)c1 (stereo not drawn) [Example 87, 3-[Methyl-(1-o-tolyl-ethyl)-amino]-azetidine-1-carboxylic acid (3-butoxy-phenyl)-amide] the IC50 was 1030 nM. With Cc1ccc(C(C)N(C)C2CN(C(=O)Nc3ccc(Oc4ccccc4)cc3)C2)c(C)c1 (stereo not drawn) [Example 105, 3-{[1-(2,4-Dimethyl-phenyl)-ethyl]-methyl-amino}-azetidine-1-carboxylic acid (4-phenoxy-phenyl)-amide] the IC50 was 420 nM. Compound O=C(Cc1ccc(Oc2ccccc2)cc1)N1CC(NC2Cc3ccccc3C2)C1 [Example 45, 1-[3-(Indan-2-ylamino)-azetidin-1-yl]-2-(4-phenoxy-phenyl)-ethanone] has an IC50 of 650 nM. In the case of Cc1cccc(C(C)NC2CN(C(=O)Nc3ccc(Oc4ccccc4)cc3)C2)c1 (stereo not drawn) [Example 118, 3-(1-m-Tolyl-ethylamino)-azetidine-1-carboxylic acid (4-phenoxy-phenyl)-amide], the IC50 is reported as 430 nM. Work on COc1ccc(C(C)NC2CN(C(=O)Nc3ccc(Oc4ccccc4)cc3)C2)cc1 (stereo not drawn) [Example 54, 3-[1-(4-Methoxy-phenyl)-ethylamino]-azetidine-1-carboxylic acid (4-phenoxy-phenyl)-amide] yielded an IC50 of 420 nM. CC1Cc2ccccc2C1NC1CN(C(=O)Nc2ccc(Oc3ccccc3)cc2)C1 (stereo not drawn) [Example 25, 3-(2-Methyl-indan-1-ylamino)-azetidine-1-carboxylic acid (4-phenoxy-phenyl)-amide] gave an IC50 of 840 nM. CC(c1ccc(F)cc1)N(C)C1CN(C(=O)Nc2cc(F)cc(C(F)(F)F)c2)C1 (stereo not drawn) [Example 82, 3-{[1-(4-Fluoro-phenyl)-ethyl]-methyl-amino}-azetidine-1-carboxylic acid (3-fluoro-5-trifluoromethyl-phenyl)-amide] was tested, and the IC50 was 5730 nM.

— patent US20100105651A1, “ANTAGONISTS OF SNS SODIUM CHANNELS” (priority 2005, published 2010)
